SMILES strings stand for the structures.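 Cells were grown in 96-well plates and exposed to each compound for 48 hours at five concentrations; endpoints were interpolated linearly between bracketing concentrations, or set to the highest concentration if not reached. GI50 = concentration required for 50% inhibition of growth. TGI marks complete inhibition of growth.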

Here are results for 7 compounds from PubChem BioAssay (NCI).

Assay in all cases: inhibition of tumour cell growth, NCI panel, 48 h
For test [1], the system named is HOP-92 NSCLC.
The subject of test [2] is DU-145 prostate.
The subject of test [3] is OVCAR-8 ovarian.
Test [4] deals with MOLT-4 leukemia.
For test [5], the system named is IGROV1 ovarian.
Test [6] deals with SNB-75 CNS.
In test [7] the test system is SK-MEL-28 melanoma.
Test [8] deals with 786-0 renal.

For the compound `COc1ccc2c(=O)c3ccoc3n(CC=C(C)C)c2c1`, the TGI in test [1] is above 63.7 µM; in test [2] it was above 100 µM; in test [3] it was above 100 µM; in test [4], above 100 µM; in test [5], above 100 µM; in test [6], above 100 µM. In addition, the TGI in test [7] and in test [8] was above 100 µM each time.
Consider `COc1cc2cc(Oc3ccc(NC(=O)Nc4cccc(C(F)(F)F)c4)cc3)c(C)nc2cc1OC`, for which the GI50 was 1.26 µM in test [1]; 2780 nM in test [2]; 1710 nM in test [3]; 1550 nM in test [4]; 2.95 µM in test [5]; 1170 nM in test [6]. Also, the GI50 was 1970 nM in test [7] and 1740 nM in test [8]. Moreover, the TGI in test [1] was found to be 3.96 µM; in test [2], 15.8 µM; in test [3], 6.28 µM; in test [4], 6.87 µM; in test [5], 24.9 µM; in test [6], 6.18 µM. Further, the TGI in test [7] stood at 8.37 µM; in test [8], 9.24 µM.
Turning to `Cc1c(-c2c(-c3ccc(F)o3)sc3ncnc(O[C@H](Cc4ccccc4OCc4ccnn4CC(F)(F)F)C(=O)O)c23)ccc(OCCN2CCN(C)CC2)c1Cl`, the GI50 in test [1] was 4.57 µM; in test [2], 2330 nM; in test [3] it was 5820 nM; in test [4] it was 108 nM; in test [5] it was 5.68 µM; in test [6] it was 1920 nM. The GI50 in test [7] is 3840 nM; in test [8], 3970 nM. For the same compound, the TGI in test [1] was 9.7 µM; in test [2], 5.36 µM; in test [3], 15.5 µM; in test [4], 4.71 µM; in test [5], 14.8 µM; in test [6] it was 5.61 µM. Moreover, the TGI in test [7] worked out at 7.82 µM; in test [8] it was 8.33 µM.
On to `COc1cc2c3c(n(CCCN)c(=O)c2cc1OC)-c1cc2c(cc1/C3=C\CCN)OCO2`, for which the GI50 in test [1] was 3.69 µM; in test [2], 2520 nM; in test [3], 1990 nM; in test [4] it was 60.1 nM; in test [5], 3.74 µM; in test [6], 1850 nM. The GI50 in test [7] was 2150 nM; in test [8] it was 2050 nM. The TGI in test [1] is above 49.4 µM; in test [2], 12.7 µM; in test [3], 13.1 µM; in test [5], above 26.8 µM; in test [6] it was 8.02 µM; in test [7] it was 9.67 µM. Also, in test [8], the TGI came to 9.34 µM.
For the compound `O=C1/C(=C/c2ccccc2)CN(C(=O)c2cccnc2)C/C1=C\c1ccccc1`, the GI50 in test [1] is 10.9 µM; in test [2] it was 2040 nM; in test [3], 2080 nM; in test [4], 752 nM; in test [5], 2.85 µM; in test [6] it was 5480 nM. Further, the GI50 is 2390 nM in test [7] and 2070 nM in test [8]. Further, the TGI is 23.6 µM in test [1]; 6.13 µM in test [2]; 11.8 µM in test [3]; above 100 µM in test [4]; 9.74 µM in test [5]; 26.7 µM in test [6]. Also, the TGI in test [7] turned out to be 6.37 µM; in test [8] it was 4.57 µM.
Take `Nc1c(Br)cc(Br)c2c1[nH]c(=O)c1ccccc12`: the GI50 is 1.96 µM in test [1]; 23600 nM in test [2]; 4040 nM in test [3]; 18400 nM in test [4]; 4.85 µM in test [5]; 1360 nM in test [6]. Moreover, the figures for the GI50 in test [7] and in test [8] were above 45900 nM and 2720 nM, respectively. For the same compound, the TGI in test [1] is 8.57 µM; in test [2], above 100 µM; in test [3] it was 26.5 µM; in test [4], above 63.8 µM; in test [5] it was 38.5 µM; in test [6] it was 3.77 µM. In addition, the TGI was above 100 µM in test [7] and 7.83 µM in test [8].
`O=C1C(Cl)=C(Nc2cccc(Cl)c2)C(=O)N1Cc1ccccc1Cl`: the GI50 in test [1] is 8.28 µM; in test [2] it was 18200 nM; in test [3], 1820 nM; in test [4], 370 nM; in test [5] it was 12.3 µM; in test [6] it was 5480 nM. Besides, the GI50 is 9950 nM in test [7] and 1210 nM in test [8]. For the same compound, the TGI in test [1] was 32.4 µM; in test [2], 38.1 µM; in test [3] it was 17.1 µM; in test [4], above 100 µM; in test [5], 73.8 µM; in test [6], 30 µM. In addition, the TGI in test [7] was 34.2 µM; in test [8], 16.3 µM.
